Assay results as given in ChEMBL document CHEMBL3112457, “Inhibition of hypoxia-inducible factor prolyl hydroxylase domain oxygen sensors: tricking the body into mounting orchestrated survival and repair responses” (J Med Chem, 2013).
Each block holds one molecule with its values, some of them ahead of it.

Tests used:
[1] = target: T1, Prolyl hydroxylase EGLN3 (Homo sapiens, UniProt Q9H6Z9); assay: Inhibition of 6His-tagged PHD3 (1 to 239) (unknown origin)-mediated Cy5CODD hydroxylation expressed in Escherichia coli preincubated for 3 mins followed by substrate addition measured after 30 mins
T1 sequence (Q9H6Z9 whole entry): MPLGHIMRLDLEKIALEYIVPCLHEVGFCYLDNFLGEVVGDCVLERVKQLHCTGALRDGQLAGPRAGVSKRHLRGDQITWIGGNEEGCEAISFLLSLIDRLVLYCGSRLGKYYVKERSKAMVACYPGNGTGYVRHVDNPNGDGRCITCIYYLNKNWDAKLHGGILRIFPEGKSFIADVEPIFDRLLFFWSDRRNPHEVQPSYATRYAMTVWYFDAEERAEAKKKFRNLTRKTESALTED

[2] = Inhibition of human CPH2 assessed as 2-Oxoglutarate conversion to succinic acid after 1 hr by radiometric HPLC analysis
[3] = test system: Homo sapiens; assay: Antianemic activity in human assessed as change in hemoglobin level administered thrice weekly for 12 weeks; format: functional
[4] = test system: Homo sapiens; assay: Reduction in total cholesterol level in chronic kidney disease patient administered for 16 to 24 weeks relative to control; format: functional; design: scale not given: the % may be the effect or the level left
[5] = test system: Homo sapiens; assay: Antianemic activity in nondialysis chronic kidney disease patient assessed as increase in hemoglobin level at 60 to 150 mg administered twice/thrice weekly for 16 to 24 weeks; format: functional
[6] = test system: Homo sapiens; assay: Antianemic activity in end stage renal disease patient receiving hemodialysis assessed as increase in hemoglobin level at 1.5 to 2 mg/kg, po administered thrice weekly for 6 weeks relative to control; format: functional; details: dose mg/kg 1.5-2
[7] = test system: Homo sapiens; assay: Antianemic activity in chronic kidney disease patient assessed as hemoglobin level administered for 4 weeks; format: functional
[8] = target: T2, Egl nine homolog 1 (Homo sapiens, UniProt Q9GZT9); assay: Inhibition of FLAG-tagged full length PHD2 (unknown origin) expressed in Sf9 cells using HIF-1alpha peptide as substrate preincubated for 30 mins followed by substrate addition measured after 2 hrs by HTRF assay in presence of 2-oxoglutarate
Target sequence in this assay (Q9GZT9 whole entry): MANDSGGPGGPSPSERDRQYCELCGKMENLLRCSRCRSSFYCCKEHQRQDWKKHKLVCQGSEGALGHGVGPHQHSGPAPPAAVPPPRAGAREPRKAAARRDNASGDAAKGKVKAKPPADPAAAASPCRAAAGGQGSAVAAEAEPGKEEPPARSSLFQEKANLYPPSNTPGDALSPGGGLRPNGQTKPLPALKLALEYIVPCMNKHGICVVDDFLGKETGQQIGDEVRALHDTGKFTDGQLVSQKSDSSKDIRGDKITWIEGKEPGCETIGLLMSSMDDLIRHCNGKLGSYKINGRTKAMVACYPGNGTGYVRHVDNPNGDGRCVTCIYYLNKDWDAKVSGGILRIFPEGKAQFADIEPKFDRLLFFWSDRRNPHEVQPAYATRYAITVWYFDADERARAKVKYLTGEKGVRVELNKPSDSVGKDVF

[9] = target: T1, Prolyl hydroxylase EGLN3; assay: Inhibition of 6His-tagged PHD3 (1 to 239) (unknown origin)-mediated Cy5CODD hydroxylation expressed in Escherichia coli after 30 mins
[10] = test system: Mus musculus; assay: Suppression of TNBS-induced colitis in mouse assessed as increase in hematocrit at 1 to 5 mg/kg, po after 7 days relative to control; format: functional; details: dose mg/kg 1-5
[11] = target: T2, Egl nine homolog 1; assay: Inhibition of PHD2 in HEK293 cells assessed as VEGF release by immunoassay; format: cell-based
Target sequence in this assay (Q9GZT9 whole entry): as above

[12] = Inhibition of prolyl hydroxylase (unknown origin) using biotin-labeled DLDLEMLAPYIPMDDDFQL as substrate after 60 mins by FRET assay; design: species or system Homo sapiens
[13] = target: T2, Egl nine homolog 1; assay: Inhibition of HIF-PH2 (unknown origin) expressed in insect Hi5 cells using [methoxycoumarin]-DLDLEALAPYIPADDDFQL-amide as substrate at 22 uM by [14]CO2 capture assay relative to control; details: BTI-TN-5B1-4
Target sequence in this assay (Q9GZT9 2-426 limits assumed): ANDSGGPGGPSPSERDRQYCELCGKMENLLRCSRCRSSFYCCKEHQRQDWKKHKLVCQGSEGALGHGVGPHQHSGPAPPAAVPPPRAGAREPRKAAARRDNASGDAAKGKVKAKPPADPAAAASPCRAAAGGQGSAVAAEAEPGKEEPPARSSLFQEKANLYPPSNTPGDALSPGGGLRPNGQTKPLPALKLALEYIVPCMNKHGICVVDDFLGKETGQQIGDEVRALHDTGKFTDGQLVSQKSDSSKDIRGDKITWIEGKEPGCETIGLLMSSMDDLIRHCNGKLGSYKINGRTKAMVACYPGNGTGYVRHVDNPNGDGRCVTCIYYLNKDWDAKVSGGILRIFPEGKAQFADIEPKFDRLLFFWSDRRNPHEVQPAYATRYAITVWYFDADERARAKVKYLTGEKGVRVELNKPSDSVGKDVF

[14] = target: T2, Egl nine homolog 1; assay: Inhibition of HIF-PH2 (unknown origin) expressed in insect Hi5 cells using [methoxycoumarin]-DLDLEALAPYIPADDDFQL-amide as substrate at 7.4 uM by [14]CO2 capture assay relative to control; details: BTI-TN-5B1-4
Target sequence in this assay (Q9GZT9 2-426 limits assumed): as above

[15] = target: T2, Egl nine homolog 1; assay: Inhibition of PHD2 (unknown origin) using P564 HIFlalpha as substrate after 1 hr by TR-FRET assay
Target sequence in this assay (Q9GZT9 whole entry): as the sequence (Q9GZT9 whole entry) above

[16] = target: T1, Prolyl hydroxylase EGLN3; assay: Inhibition of PHD3 in human Hep3B cells assessed as stimulation of EPO release after 48 hrs by ELISA; format: cell-based, Hep 3B2
[17] = target: T1, Prolyl hydroxylase EGLN3; assay: Inhibition of full length human recombinant EGLN-3 using DLDLEALAPYIPADDDFQL as substrate after 20 mins by mass spectrophotometric analysis
[18] = target: T2, Egl nine homolog 1; assay: Inhibition of human recombinant EGLN-1 using DLDLEALAPYIPADDDFQL as substrate after 20 mins by mass spectrophotometric analysis
Target sequence in this assay (Q9GZT9 whole entry): as above

[19] = Inhibition of prolyl hydroxylase in human Hep3B cells assessed as stimulation of EPO release at 100 uM after 24 hrs by ELISA relative to control; format: cell-based, Hep 3B2

- IC50 [1]: 1 nM
Structure (SMILES): O=C(O)CNC(=O)c1c2ncn(Cc3ccccc3)c2cc2c1ncn2Cc1ccccc1

- IC50 [2]: 13 µM
Structure (SMILES): Cn1c(=O)c(C(=O)CCC(=O)O)c(O)c2ccc(Br)cc21

Structure (SMILES): Cc1nc(C(=O)NCC(=O)O)c(O)c2ccc(Oc3ccccc3)cc12 [ROXADUSTAT]
- Activity [3]: 2.1 g/dL
- Activity [4]: -20%
- Activity [5]: 1.4 g/dL
- Activity [6]: 1 g/dL
- Activity [7]: 1 g/dL

Structure (SMILES): O=C(O)CNC(=O)c1c(O)c2c(n(CC3Cc4ccccc4C3)c1=O)COC2
- IC50 [8]: < 10 nM

Structure (SMILES): O=C(O)CNC(=O)c1c(O)c2ccc(F)cc2n(Cc2ccccc2Cl)c1=O
- IC50 [9]: 20 nM

- EC50 [11]: 17 µM
Structure (SMILES): CC(C)(C)OC(=O)N1CCN(Cc2ccn(Cc3ccc(Cl)cc3)c(=O)c2O)CC1 [IZILENDUSTAT]
- Activity [10]: 2%

Structure (SMILES): O=C(O)CNC(=O)c1c(O)c2c(n(Cc3ccc(C(F)(F)F)cc3)c1=O)CN(C(=O)C1CC1)C2
- IC50 [8]: < 10 nM

- IC50 [12]: < 30 µM
Structure (SMILES): O=c1c(-c2cccnc2)c[nH]n1-c1cc(N2CCCCC2)ncn1

- inhibition [13]: 99%
Structure (SMILES): O=C(O)CNC(=O)c1c(O)c2c(Cl)c(Cl)c(Cl)n2n(Cc2ccccc2)c1=O

- inhibition [14]: 99%
Structure (SMILES): O=C(O)CNC(=O)c1c(O)c2cc(Cl)cc(C#Cc3ccccc3)c2sc1=O

Structure (SMILES): Cc1cccc(CN2CCC3(CC2)C(=O)N(c2ccc(-c4ccccc4)cc2)c2ccc(C(=O)O)cc23)n1
- IC50 [8]: 0.7 nM

- IC50 [15]: 3 nM
Structure (SMILES): Cn1c(=O)c(C(=O)NCC(=O)O)c(O)c2sccc21

Structure (SMILES): Cc1c(O)c(C(=O)NCC(=O)O)c(=O)n(Cc2ccccc2)c1C
- EC50 [16]: > 10000 nM

- IC50 [1]: 1 nM
Structure (SMILES): O=C(O)CNC(=O)c1c(O)c(Br)cc2c1ncn2Cc1ccccc1

- EC50 [16]: 400 nM
- IC50 [9]: 0.8 nM
Structure (SMILES): CC(C)(C)c1ccc(Cn2nc(-c3ccc(Cl)cc3)c(O)c(C(=O)NCC(=O)O)c2=O)cc1

- IC50 [8]: 0.7 nM
Structure (SMILES): O=C(Cc1ccc2ccccc2c1)Nc1cnc(-n2cccn2)nc1O

- IC50 [17]: > 500 µM
- IC50 [18]: > 500 µM
Structure (SMILES): O=C(O)CNC(=O)c1ccc(-c2ccc3ccccc3c2)cn1

- EC50 [19]: 5.9 µM
Structure (SMILES): O=C(O)CNC(=O)c1c(O)cc(-c2cc(F)cc(Cl)c2)c2ncnn12

- IC50 [1]: 1 nM
- EC50 [16]: 1000 nM
Structure (SMILES): COc1ccc(-n2c(=O)[nH]c3cc(C(=O)NCc4ccc(Cl)cc4)ncc3c2=O)nc1OC

- IC50 [1]: 1 nM
Structure (SMILES): O=C(O)CNC(=O)c1c(O)ccc2cc(-c3ccccc3)cnc12

Structure (SMILES): O=C(O)CNC(=O)c1c(O)c(C(=O)NCc2ccccc2)cn(Cc2ccccc2)c1=O
- EC50 [16]: 1 nM

- IC50 [15]: < 100 nM
Structure (SMILES): O=C(O)CCC(=O)C1=C(O)c2ccc(Cl)cc2C2(CCOCC2)C1=O
